Where “and” joins values, the source holds several entries; their conditions need not be identical. Equal values may be shown once.
What was measured:
[1] = target: EGFR (Homo sapiens, UniProt P00533); test: EGFR inhibitory assay (EGFR-TK, DELFIA/time-resolved fluorometry)
Protocol: EGFR-TK assay was performed to evaluate the inhibitory potency of novel compounds against
EGFR. Baculoviral expression vectors including pBlueBacHis2B and pFASTBacHTc were used
5ʹ upstream to the EGFR sequence comprised a sequence that encoded (His)6. Sf-9 cells were infected for 72h for protein expression. The pellets of Sf-9 cells were solubilized in a buffer containing sodium vanadate (100 µM), aprotinin (10 µg/mL), triton (1%), HEPES buffer (50mM), ammonium molybdate (10 µM), benzamidine HCl (16 µg/mL), NaCl (10 mM), leupeptin (10 µg/mL) and pepstatin (10 µg/mL) at 0°C for 20 min at pH 7.4, followed by centrifugation for 20 min.
To eliminate the non-specifically bound material, a Ni-NTA super flow packed column was used to pass through and wash the crude extract supernatant first with 10 mM and then with 100 mM imidazole. Histidine-linked proteins were first eluted with 250 and then with 500 mM imidazole after (1 picture or pasted object on this page, not shown here)
dialysis against NaCl (50 mM), HEPES (20 mM), glycerol (10%) and 1 µg/mL each of aprotinin, leupeptin and pepstatin for 120 min. The purification was performed either at 4 °C or on ice. To
(§4) record autophosphorylation level, EGFR kinase assay was carried out based on DELFIA/Time-
(§5) Resolved Fluorometry. The compounds were first dissolved in DMSO absolute, after dilution to
Each compound (10 µL) was incubated
(§6) with recombinant enzyme (10 µL, 5 ng for EGFR, 1:80 dilution in 100 mM HEPES) for 10 min at
(§7) 25 °C, after the addition of 5X buffer (10 µL, containing 2 mM MnCl2, 100 µM Na3VO4, 20 mM HEPES and 1 mM DTT) and ATP-MgCl2 (20 µL, containing 0.1 mM ATP and 50 mM MgCl2) and
(§8) incubation for 1h. The negative and positive controls were included in each plate by the incubation
(§9) of enzyme either with or without ATP-MgCl2. The liquid was removed after incubation and the plates
(§10) were washed thrice using wash buffer. Europium-tagged antiphosphotyrosine antibody (75 µL, 400
(§11) ng) was added to each well followed by incubation of 1h and then washing of the plates using buffer.
(§12) The enhancement solution was added to each well and the signal was recorded at excitation and
(§13) The autophosphorylation percentage inhibition by compounds was calculated using the following equation:

[2] = system: Bax; test: Bax activation assay; assay type: cell-based, human; details: for Bax Conc: A-549; for Bax Fold Change: A-549, vs control untreated cells
Protocol: 8, and lysed with Cell Extraction Buffer. This lysate was diluted in Standard Diluent Buffer over the range of the assay and measured for human active caspase-8 content. (cells are Plated in a density of 1.2 – 1.8 × 10,000 cells/well in a volume of 100µl complete growth medium + 100 ul of the tested compound per well in a 96-well plate for 24 hours before the enzyme assay for […].). […]
4.2.4. Bax activation assay
Bring all reagents, except the human Bax-α Standard, to room temperature for at least 30 minutes prior to opening. The human Bax-α Standard solution should not be left at room temperature for more than 10 minutes. All standards, controls and samples should be run in duplicate. Refer to the Assay Layout Sheet to determine the number of wells to be used and put any remaining wells with the desiccant back into the pouch and seal the ziploc. Store unused wells at 4 °C. Pipet 100 μL of Assay Buffer into the S0 (0 pg/mL standard) wells. Pipet 100 μL of Standards #1 through #6 into the appropriate wells. Pipet 100 μL of the Samples into the appropriate wells. Tap the plate gently to mix the contents. Seal the plate and incubate at room temperature on a plate shaker for 1 hour at ~500 rpm. Empty the contents of the wells and wash by adding 400 μL of wash solution to every well.
Repeat the wash 4 more times for a total of 5 washes. After the final wash, empty or aspirate the wells and firmly tap the plate on a lint free paper towel to remove any remaining wash buffer. Pipet 100 μL of yellow Antibody into each well, except the Blank. Seal the plate and incubate at room temperature on a plate shaker for 1 hour at ~500 […]
wells and firmly tap the plate on a lint free paper towel to remove any remaining wash buffer. Add […]
100 μL of blue Conjugate to each well, except the Blank. Seal the plate and incubate at room temperature on a plate shaker for 30 minutes at ~500 rpm. Empty the contents of the wells and wash by adding 400 μL of wash solution to every well. Repeat the wash 4 more times for a total of 5 washes. After the final wash, empty or aspirate the wells and firmly tap the plate on a lint free paper towel to remove any remaining wash buffer. Pipet 100 μL of Substrate Solution into each well.
Incubate for 30 minutes at room temperature on a plate shaker at ~500 rpm. Pipet 100 μL Stop Solution to each well. Blank the plate reader against the Blank wells, read the optical density at 450 nm. Calculate the average net Optical Density (OD) bound for each standard and sample by subtracting the average Blank OD from the average OD for each standard and sample. Using linear graph paper, plot the Average Net OD for each standard versus Bax concentration in each standard.
Approximate a straight line through the points. The concentration of Bax in the unknowns can be determined by interpolation. […]

[3] = system: Cytochrome C; test: Cytochrome C assay; assay type: cell-based, human; details: for Cytochrome C Conc: A-549; for Cytochrome C Fold Change: A-549, vs control
Protocol: The concentration of Cytochrome c in a cell is crucial for activating caspases and starting the intrinsic apoptosis process. […]
(§1) plate cover and incubate at room temperature, on a microplate shaker at 100 rpm if available, for 1 hour. Remove plate cover and empty the wells. Wash microwell strips 3 times as described in step 2.
(§2) Proceed to the next step. Pipette 100 μl of mixed TMB Substrate Solution to all wells, including the […]
(§3) available on a rotator set at 100 rpm. Avoid direct exposure to intense light. The point, at which the substrate reaction is stopped, is often determined by the ELISA reader. Many ELISA readers record absorbance only up to 2.0 O.D. Therefore, the color development within individual microwells must be watched by the person running the assay and the substrate reaction stopped before positive wells are no longer properly detectable. Stop the enzyme reaction by quickly pipetting 100 μL of Stop Solution into each well, including the blank wells. It is important that the Stop Solution is spread quickly and uniformly throughout the microwells to completely inactivate the enzyme. Results must be read immediately after the Stop Solution is added or within one hour if the microwell strips are stored at 2 - 8°C in the dark. Read absorbance of each microwell on a spectrophotometer using 450 nm as the primary wave length.
4.2.6. Cytochrome C assay […]
cytochrome C, and lysed with Cell Extraction Buffer. This lysate was diluted in Standard Diluent Buffer over the range of the assay and measured for cytochrome C content. (Cells are Plated in cells/well in a volume of 100µl complete growth medium + 100 µl of the tested compound + 50 µl of 1X biotin conjugated antibody+ 100 µl of 1X streptavidin-HRP+ 100 µL TMB substrate soln of per well in a 96-well plate for 24 hours before assay).
4.3. Statistical analysis
Computerized Prism 5 program was used to statistically analyzed data using one-way ANOVA test followed by Tukey’s as post ANOVA for multiple comparison at P ≤.05. Data were presented as […]

[4] = system: caspase-9; test: Caspase-9 level assay; assay type: cell-based, human; details: for Caspase-9 Fold Change: vs control cells
Protocol: The impact of compounds 4a and 4b on caspase-8 and caspase-9 was also assessed to clarify how compounds 4a and 4b induce apoptosis by activating the intrinsic or extrinsic route.

[5] = system: caspase-3; test: Caspase-3 activation assay; details: for Caspase-3 Conc: A-549; for Caspase-3 Fold Change: A-549, vs control untreated cells
Protocol: as §4, §5
Each compound (10 µL) was incubated
as §6, §7, §8, §9, §10, §11, §12, §13

[6] = system: Bcl-2; test: Bcl-2 inhibition assay; assay type: cell-based, human; details: for Bcl-2 Conc: A-549; for Bcl-2 Fold Reduction: A-549, vs control
Protocol: 4.2.5. Bcl-2inhibition assay
Mix all reagents thoroughly without foaming before use. Wash the microwells twice with approximately 300 μL Wash Buffer per well with thorough aspiration of microwell contents between washes. Take caution not to scratch the surface of the microwells. After the last wash, empty the wells and tap microwell strips on absorbent pad or paper towel to remove excess Wash Buffer. Use the microwell strips immediately after washing or place upside down on a wet absorbent paper for not […]
longer than 15 minutes. […] Add 100 μL of Sample Diluent in duplicate to all standard wells and to the blank wells. Prepare standard (1:2 dilution) in duplicate ranging from 32 ng/mL to 0.5 ng/mL. Add 100 μL of Sample Diluent, in duplicate, to the blank wells. Add 80 μL of Sample Diluent, in duplicate, to the sample wells. Add 20 μL of each Sample, in duplicate, to the designated wells. Add 50 μL of diluted biotin-conjugate to all wells, including the blank wells. Cover […]
Remove plate cover and empty the wells. […]
as §1, §2
as §3, with “length. […]” for “length.”

EGFR, sequence (P00533 669-1210): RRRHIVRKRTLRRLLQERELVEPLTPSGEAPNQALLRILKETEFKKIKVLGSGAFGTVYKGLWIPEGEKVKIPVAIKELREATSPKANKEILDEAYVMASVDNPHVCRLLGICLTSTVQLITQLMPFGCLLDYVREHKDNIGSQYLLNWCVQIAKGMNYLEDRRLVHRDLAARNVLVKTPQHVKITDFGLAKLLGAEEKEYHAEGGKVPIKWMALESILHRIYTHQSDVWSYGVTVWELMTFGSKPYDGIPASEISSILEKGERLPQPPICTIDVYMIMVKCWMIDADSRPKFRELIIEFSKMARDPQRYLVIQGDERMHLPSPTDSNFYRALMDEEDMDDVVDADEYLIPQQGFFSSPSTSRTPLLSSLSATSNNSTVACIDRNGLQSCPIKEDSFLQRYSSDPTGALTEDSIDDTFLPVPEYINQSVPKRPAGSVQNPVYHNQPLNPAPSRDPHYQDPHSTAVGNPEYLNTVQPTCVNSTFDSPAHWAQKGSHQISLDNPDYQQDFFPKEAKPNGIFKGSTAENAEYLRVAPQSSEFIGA

Structure (SMILES)	IC50 [1] [nM]	fold less effective than erlotinib (EGFR IC50) ([1]; relative to erlotinib)	Bax Conc [2]	Bax Fold Change [2]	Cytochrome C Conc [3] [ng/mL]	Cytochrome C Fold Change [3]	Caspase-9 Conc [4] [ng/mL]	Caspase-9 Fold Change [4]	Caspase-3 Conc [5] [pg/mL]	Caspase-3 Fold Change [5]	Bcl-2 Conc [6] [ng/mL]	Bcl-2 Fold Reduction [6]
Cc1ccc2[nH]c(=O)cc(-n3cc(COc4cccc5cccc(OCc6cn(-c7cc(=O)[nH]c8ccc(C)cc78)nn6)c45)nn3)c2c1 [Compound 4b, 4,4′-(((naphthalene-1,8-diylbis(oxy))bis(methylene))bis(1H-1,2,3-triazole-4,1-diyl))-bis(6-methylquinolin-2(1H)-one)]	93 ± 9	roughly 1.3 fold	284 pg/mL and 284.50 pg/mL	34	0.70	14	16.60	18 and 17.50	535.50 ± 4.50	8 and 8.15	1.17	4
O=c1cc(-n2cc(COc3cccc4cccc(OCc5cn(-c6cc(=O)[nH]c7ccccc67)nn5)c34)nn2)c2ccccc2[nH]1 [Compound 4a, 4,4′-(((naphthalene-1,8-diylbis(oxy))bis(methylene))bis(1H-1,2,3-triazole-4,1-diyl))-bis-(quinolin-2(1H)-one)]	64 ± 6		298 pg/mL and 298.60 pg/mL	36	0.80	16	17.80	19 and 18.75	587.50 ± 4.50	9 and 8.95	1.05	5

— article PMC9788418, “Design, Synthesis and Biological Evaluation of Syn and Anti-like Double Warhead Quinolinones Bearing Dihydroxy Naphthalene Moiety as Epidermal Growth Factor Receptor Inhibitors with Potential Apoptotic Antiproliferative Action” (Molecules, 2022)
